Measured values published in ChEMBL document CHEMBL4507319 (2021).
Activity calls are given as the source filed them. No cut-off for these calls is given here.

Legend:
[1] = biological target: 5'-AMP-activated protein kinase catalytic subunit alpha-1 (Homo sapiens, UniProt Q13131); test: Biochemical PRKAA1 assay with 2 mM ATP (Bayer in house)
[2] = biological target: Ankyrin repeat and protein kinase domain-containing protein 1 (Homo sapiens) (UniProt Q8NFD2); conditions: Compound concentration 1000.0 nM
[3] = biological target: Serine/threonine-protein kinase Chk2 (Homo sapiens) (UniProt O96017); conditions: Compound concentration 1000.0 nM
[4] = biological target: Citron Rho-interacting kinase (Homo sapiens) (UniProt O14578); conditions: Compound concentration 1000.0 nM
[5] = biological target: Dual specificity protein kinase CLK1 (Homo sapiens) (UniProt P49759); conditions: Compound concentration 1000.0 nM
[6] = test system: Epidermal growth factor receptor (Homo sapiens), P00533 [T790M]; conditions: Compound concentration 1000.0 nM
[7] = biological target: Ephrin type-B receptor 6 (Homo sapiens) (UniProt O15197); conditions: Compound concentration 1000.0 nM
[8] = biological target: Fibroblast growth factor receptor 2 (Homo sapiens) (UniProt P21802); conditions: Compound concentration 1000.0 nM
[9] = biological target: Receptor-type tyrosine-protein kinase FLT3 (Homo sapiens) (UniProt P36888); conditions: Compound concentration 1000.0 nM
[10] = test system: Receptor-type tyrosine-protein kinase FLT3 (Homo sapiens), P36888 [D835H]; conditions: Compound concentration 1000.0 nM
[11] = biological target: Vascular endothelial growth factor receptor 3 (Homo sapiens) (UniProt P35916); conditions: Compound concentration 1000.0 nM
[12] = biological target: Cyclin-G-associated kinase (Homo sapiens) (UniProt O14976); conditions: Compound concentration 1000.0 nM
[13] = biological target: T1, Beta-adrenergic receptor kinase 1 (Homo sapiens) (UniProt P25098); conditions: Compound concentration 1000.0 nM
T1 sequence (whole entry): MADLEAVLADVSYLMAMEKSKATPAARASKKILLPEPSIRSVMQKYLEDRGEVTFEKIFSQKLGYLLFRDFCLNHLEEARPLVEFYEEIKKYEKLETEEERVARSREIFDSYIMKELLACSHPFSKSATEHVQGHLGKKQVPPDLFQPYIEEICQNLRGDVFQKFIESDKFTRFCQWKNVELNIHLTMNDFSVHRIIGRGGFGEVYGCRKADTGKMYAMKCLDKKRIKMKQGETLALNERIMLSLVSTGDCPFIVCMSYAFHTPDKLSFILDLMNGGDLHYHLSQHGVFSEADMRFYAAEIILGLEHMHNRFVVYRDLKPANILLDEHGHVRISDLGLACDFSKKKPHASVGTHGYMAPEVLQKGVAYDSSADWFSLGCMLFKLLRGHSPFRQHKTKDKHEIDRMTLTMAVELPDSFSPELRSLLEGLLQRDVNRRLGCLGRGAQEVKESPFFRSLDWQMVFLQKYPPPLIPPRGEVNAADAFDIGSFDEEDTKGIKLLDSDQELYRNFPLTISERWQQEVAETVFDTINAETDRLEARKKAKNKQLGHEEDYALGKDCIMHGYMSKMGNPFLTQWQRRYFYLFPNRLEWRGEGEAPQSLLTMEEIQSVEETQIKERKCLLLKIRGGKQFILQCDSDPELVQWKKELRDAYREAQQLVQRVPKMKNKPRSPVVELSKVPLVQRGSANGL

[14] = biological target: Glycogen synthase kinase-3 alpha (Homo sapiens) (UniProt P49840); conditions: Compound concentration 1000.0 nM
[15] = biological target: Tyrosine-protein kinase JAK1 (Homo sapiens) (UniProt P23458); conditions: Compound concentration 1000.0 nM
[16] = biological target: Mitogen-activated protein kinase 9 (Homo sapiens) (UniProt P45984); conditions: Compound concentration 1000.0 nM
[17] = biological target: Serine/threonine-protein kinase MARK1 (Homo sapiens) (UniProt Q9P0L2); conditions: Compound concentration 1000.0 nM
[18] = biological target: Serine/threonine-protein kinase PAK 5 (Homo sapiens) (UniProt Q9P286); conditions: Compound concentration 1000.0 nM
[19] = biological target: Calcium-dependent protein kinase 1 (Plasmodium falciparum) (UniProt P62344); conditions: Compound concentration 1000.0 nM
[20] = biological target: Phosphatidylinositol 4,5-bisphosphate 3-kinase catalytic subunit alpha isoform (Homo sapiens) (UniProt P42336); conditions: Compound concentration 1000.0 nM
[21] = test system: Phosphatidylinositol 4,5-bisphosphate 3-kinase catalytic subunit alpha isoform (Homo sapiens), P42336 [H1047Y]; conditions: Compound concentration 1000.0 nM
[22] = biological target: T2, cGMP-dependent protein kinase 1 (Homo sapiens) (UniProt Q13976); conditions: Compound concentration 1000.0 nM
T2 sequence (whole entry): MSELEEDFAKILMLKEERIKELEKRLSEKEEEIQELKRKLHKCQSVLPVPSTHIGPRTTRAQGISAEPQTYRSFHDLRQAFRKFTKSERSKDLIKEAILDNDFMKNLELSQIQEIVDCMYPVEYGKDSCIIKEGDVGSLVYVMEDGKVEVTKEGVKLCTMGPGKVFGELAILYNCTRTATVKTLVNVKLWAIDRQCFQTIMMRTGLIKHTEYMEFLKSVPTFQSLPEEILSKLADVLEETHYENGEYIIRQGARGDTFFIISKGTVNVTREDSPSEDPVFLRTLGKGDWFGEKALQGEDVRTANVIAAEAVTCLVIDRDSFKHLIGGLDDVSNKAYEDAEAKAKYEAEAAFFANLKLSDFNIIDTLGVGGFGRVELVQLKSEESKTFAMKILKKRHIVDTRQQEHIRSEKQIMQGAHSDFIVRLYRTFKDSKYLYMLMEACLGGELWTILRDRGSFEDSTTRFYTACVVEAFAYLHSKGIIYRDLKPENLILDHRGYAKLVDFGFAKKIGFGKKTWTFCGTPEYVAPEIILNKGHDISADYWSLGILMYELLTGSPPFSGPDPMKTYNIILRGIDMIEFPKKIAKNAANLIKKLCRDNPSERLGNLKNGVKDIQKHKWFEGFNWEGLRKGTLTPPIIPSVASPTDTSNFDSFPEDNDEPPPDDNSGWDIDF

[23] = biological target: Protein-tyrosine kinase 2-beta (Homo sapiens) (UniProt Q14289); conditions: Compound concentration 1000.0 nM
[24] = biological target: Receptor-interacting serine/threonine-protein kinase 4 (Homo sapiens) (UniProt P57078); conditions: Compound concentration 1000.0 nM
[25] = biological target: Vascular endothelial growth factor receptor 2 (Homo sapiens) (UniProt P35968); conditions: Compound concentration 1000.0 nM
[26] = biological target: Serine/threonine-protein kinase 32A (Homo sapiens) (UniProt Q8WU08); conditions: Compound concentration 1000.0 nM

Chain of Phosphatidylinositol 4,5-bisphosphate 3-kinase catalytic subunit alpha isoform (Homo sapiens) (P42336 whole entry, canonical isoform): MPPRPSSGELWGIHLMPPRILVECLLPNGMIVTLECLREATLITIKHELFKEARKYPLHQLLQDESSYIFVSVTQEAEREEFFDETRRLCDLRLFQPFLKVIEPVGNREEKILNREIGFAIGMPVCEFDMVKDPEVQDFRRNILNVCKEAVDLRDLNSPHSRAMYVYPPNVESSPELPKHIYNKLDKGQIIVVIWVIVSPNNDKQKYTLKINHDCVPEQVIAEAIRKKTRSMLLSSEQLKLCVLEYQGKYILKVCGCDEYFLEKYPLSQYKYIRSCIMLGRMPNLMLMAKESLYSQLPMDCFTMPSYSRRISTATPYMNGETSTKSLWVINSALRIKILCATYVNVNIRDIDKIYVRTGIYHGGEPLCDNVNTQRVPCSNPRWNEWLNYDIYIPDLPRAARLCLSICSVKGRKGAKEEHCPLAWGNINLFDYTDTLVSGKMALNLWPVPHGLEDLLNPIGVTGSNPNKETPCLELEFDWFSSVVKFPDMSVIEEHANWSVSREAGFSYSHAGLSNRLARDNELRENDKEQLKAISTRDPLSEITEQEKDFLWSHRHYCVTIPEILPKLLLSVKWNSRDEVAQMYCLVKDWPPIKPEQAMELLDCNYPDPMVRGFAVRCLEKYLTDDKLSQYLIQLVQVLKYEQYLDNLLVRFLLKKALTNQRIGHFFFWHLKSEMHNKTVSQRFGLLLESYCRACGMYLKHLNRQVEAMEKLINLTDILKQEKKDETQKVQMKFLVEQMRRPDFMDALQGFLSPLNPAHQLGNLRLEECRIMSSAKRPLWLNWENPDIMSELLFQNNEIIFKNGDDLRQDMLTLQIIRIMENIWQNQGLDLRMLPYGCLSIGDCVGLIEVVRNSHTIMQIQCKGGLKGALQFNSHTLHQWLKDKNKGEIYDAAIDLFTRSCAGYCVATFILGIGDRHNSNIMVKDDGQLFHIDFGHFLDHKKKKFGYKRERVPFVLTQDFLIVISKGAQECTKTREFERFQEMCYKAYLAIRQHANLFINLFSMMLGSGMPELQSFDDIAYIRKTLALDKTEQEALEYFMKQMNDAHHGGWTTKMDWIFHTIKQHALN
Chain of Citron Rho-interacting kinase (Homo sapiens) (O14578 whole entry): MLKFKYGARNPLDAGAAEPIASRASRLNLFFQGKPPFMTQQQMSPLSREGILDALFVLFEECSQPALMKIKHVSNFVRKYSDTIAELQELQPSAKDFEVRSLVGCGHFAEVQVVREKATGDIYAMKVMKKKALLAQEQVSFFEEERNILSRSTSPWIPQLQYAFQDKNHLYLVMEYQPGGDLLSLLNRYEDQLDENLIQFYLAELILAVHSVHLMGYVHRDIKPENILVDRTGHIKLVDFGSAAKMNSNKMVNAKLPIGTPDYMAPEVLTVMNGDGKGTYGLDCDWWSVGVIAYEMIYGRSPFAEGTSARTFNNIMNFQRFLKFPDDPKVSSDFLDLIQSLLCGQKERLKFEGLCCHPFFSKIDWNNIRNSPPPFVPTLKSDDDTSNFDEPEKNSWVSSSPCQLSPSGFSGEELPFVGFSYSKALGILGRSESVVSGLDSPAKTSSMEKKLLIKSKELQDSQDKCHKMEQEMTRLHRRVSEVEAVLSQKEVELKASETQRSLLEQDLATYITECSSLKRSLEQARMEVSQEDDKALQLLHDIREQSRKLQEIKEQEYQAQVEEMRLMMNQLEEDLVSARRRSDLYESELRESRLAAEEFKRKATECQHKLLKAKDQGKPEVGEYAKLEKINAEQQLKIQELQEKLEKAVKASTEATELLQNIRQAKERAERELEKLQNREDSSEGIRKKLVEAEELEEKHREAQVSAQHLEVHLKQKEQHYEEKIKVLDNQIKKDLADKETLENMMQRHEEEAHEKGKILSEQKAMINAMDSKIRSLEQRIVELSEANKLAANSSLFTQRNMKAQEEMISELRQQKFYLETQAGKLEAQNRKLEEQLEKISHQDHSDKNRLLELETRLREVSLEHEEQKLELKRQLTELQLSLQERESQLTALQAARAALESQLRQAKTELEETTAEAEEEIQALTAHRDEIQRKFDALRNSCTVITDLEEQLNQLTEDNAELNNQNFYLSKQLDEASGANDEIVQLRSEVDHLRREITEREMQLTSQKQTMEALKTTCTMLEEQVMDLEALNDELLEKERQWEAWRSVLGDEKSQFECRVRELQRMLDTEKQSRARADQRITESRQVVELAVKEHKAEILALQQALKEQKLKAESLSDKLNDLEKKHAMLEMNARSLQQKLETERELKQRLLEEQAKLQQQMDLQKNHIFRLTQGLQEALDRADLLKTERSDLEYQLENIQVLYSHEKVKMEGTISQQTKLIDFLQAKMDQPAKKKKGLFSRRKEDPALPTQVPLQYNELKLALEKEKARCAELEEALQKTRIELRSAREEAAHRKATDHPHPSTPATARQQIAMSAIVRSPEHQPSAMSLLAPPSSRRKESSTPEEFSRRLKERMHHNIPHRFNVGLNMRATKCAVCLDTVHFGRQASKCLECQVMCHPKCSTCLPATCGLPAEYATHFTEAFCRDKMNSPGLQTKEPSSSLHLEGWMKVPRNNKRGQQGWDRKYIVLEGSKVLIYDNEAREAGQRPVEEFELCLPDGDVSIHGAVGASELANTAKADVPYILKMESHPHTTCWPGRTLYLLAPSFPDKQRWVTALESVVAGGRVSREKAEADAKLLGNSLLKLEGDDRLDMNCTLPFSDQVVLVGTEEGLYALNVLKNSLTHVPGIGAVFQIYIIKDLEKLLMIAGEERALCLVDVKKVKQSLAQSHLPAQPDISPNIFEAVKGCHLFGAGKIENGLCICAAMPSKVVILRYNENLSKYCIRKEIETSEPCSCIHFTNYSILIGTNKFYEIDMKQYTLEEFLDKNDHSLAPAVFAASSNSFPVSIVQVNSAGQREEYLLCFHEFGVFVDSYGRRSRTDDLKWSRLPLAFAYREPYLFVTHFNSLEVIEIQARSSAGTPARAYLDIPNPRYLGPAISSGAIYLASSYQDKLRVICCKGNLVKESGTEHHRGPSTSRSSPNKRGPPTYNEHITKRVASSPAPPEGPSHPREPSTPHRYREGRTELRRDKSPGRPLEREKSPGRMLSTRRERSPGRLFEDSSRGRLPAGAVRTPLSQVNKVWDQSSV
Chain of Receptor-interacting serine/threonine-protein kinase 4 (Homo sapiens) (P57078 whole entry): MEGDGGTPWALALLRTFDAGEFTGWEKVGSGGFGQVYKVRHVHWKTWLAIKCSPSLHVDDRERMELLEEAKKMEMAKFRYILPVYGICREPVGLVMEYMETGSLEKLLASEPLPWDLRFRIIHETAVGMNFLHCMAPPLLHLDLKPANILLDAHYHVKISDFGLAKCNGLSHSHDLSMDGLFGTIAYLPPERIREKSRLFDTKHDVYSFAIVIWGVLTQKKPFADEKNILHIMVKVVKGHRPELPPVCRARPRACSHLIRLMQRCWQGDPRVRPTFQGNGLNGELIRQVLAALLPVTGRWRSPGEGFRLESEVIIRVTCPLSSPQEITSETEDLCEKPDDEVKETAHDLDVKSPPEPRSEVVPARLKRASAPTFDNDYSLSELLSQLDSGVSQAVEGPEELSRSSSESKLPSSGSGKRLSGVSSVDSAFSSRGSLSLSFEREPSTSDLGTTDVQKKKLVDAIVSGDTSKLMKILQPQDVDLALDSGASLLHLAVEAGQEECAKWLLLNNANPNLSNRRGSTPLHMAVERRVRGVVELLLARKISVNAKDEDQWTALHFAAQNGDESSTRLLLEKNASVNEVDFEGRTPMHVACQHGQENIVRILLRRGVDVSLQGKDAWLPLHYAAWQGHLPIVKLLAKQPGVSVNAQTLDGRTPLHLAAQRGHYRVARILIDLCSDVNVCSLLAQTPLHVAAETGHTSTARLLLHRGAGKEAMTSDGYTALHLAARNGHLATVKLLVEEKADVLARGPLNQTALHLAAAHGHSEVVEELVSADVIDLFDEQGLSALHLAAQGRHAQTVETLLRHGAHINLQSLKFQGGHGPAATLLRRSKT
Chain of Mitogen-activated protein kinase 9 (Homo sapiens) (P45984 whole entry, looked up): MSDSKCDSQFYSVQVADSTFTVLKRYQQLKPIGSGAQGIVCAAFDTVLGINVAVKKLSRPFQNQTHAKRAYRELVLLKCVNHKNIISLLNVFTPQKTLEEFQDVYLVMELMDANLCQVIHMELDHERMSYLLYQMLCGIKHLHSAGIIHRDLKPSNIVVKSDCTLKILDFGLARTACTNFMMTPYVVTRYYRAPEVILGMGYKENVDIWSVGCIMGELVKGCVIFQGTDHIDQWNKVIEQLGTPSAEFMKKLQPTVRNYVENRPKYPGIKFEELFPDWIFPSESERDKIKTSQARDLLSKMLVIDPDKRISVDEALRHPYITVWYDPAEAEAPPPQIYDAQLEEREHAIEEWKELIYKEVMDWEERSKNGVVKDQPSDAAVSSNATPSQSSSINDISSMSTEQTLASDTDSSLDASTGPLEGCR
Chain of Serine/threonine-protein kinase Chk2 (Homo sapiens) (O96017 whole entry): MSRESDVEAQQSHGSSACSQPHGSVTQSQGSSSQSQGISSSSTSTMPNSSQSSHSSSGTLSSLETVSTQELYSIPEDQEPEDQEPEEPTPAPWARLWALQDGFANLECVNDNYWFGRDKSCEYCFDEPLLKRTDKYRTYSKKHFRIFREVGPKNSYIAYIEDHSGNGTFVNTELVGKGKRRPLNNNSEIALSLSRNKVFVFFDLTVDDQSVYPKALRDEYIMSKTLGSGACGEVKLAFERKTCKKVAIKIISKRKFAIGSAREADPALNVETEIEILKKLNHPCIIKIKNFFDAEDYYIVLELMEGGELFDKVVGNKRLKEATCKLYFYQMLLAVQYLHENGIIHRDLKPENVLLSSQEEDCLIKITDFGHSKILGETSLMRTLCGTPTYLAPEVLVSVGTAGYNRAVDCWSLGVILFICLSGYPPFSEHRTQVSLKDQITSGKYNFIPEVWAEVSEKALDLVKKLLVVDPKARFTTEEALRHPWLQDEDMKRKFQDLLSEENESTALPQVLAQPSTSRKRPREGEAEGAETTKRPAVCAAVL
Chain of Phosphatidylinositol 4,5-bisphosphate 3-kinase catalytic subunit alpha isoform (Homo sapiens), P42336 [H1047Y] (P42336 whole entry H1047Y, canonical isoform): as the sequence (P42336 whole entry, canonical isoform) above, with H1047Y counted along it

SMILES	IC50 [1]	residual activity [2] [%]	residual activity [3] [%]	residual activity [4] [%]	residual activity [5] [%]	residual activity [6] [%]	residual activity [7] [%]	residual activity [8] [%]	residual activity [9] [%]	residual activity [10] [%]	residual activity [11] [%]	residual activity [12] [%]	residual activity [13] [%]	residual activity [14] [%]	residual activity [15] [%]	residual activity [16] [%]	residual activity [17] [%]	residual activity [18] [%]	residual activity [19] [%]	residual activity [20] [%]	further results
CC1=C(C#N)C(c2ccc3c(c2)c(NC(=O)c2ccccc2C)nn3C)C(C#N)=C(C)N1 [BAY-974]	> 20 µM (not active)	92	74	55	87	100	81	97	90	99	100	100	91	100	100	73	100	100	98	100	residual activity [21]: 91%; residual activity [22]: 100%; residual activity [23]: 83%; residual activity [24]: 78%; residual activity [25]: 80%; residual activity [26]: 95%
CCc1ccccc1C(=O)Nc1n[nH]c2c(C)c(F)c(C3C(C#N)=C(C)N(C)C(C)=C3C#N)cc12 [BAY-3827]	0.015 µM (active)	100	70	90	84	100	100	83	16	16	85	82	100	90	97	67	36	100	100	100	residual activity [21]: 77%; residual activity [22]: 100%; residual activity [23]: 92%; residual activity [24]: 92%; residual activity [25]: 88%; residual activity [26]: 100%
